This is an account of results in patent publication US10588608B2, “Sampling systems and related materials and methods” (Progenity Inc., priority 2016, dated 2020).

Like-named read-outs stand apart in the source and are kept apart here.

In test [1] the test system is bacterial cells. As to conditions: preservative with TENT, PCR or plating, FIG. 59A/59B.
Test [2] relates to bacteria. Briefly: Bactericidal preservatives added to bacteria, cell counts by flow cytometry or cell plating. The test is classed as cell-based. As to conditions: cell counts over 3 days, FIG. 60. For orientation: Flow cytometry measures light scatter and fluorescence of single cells or particles in a stream.
Where [3] appears, read: high concentration culture, 4.5×10^6 cells.
[4] abbreviates: low concentration culture, 8.6×10^4 cells.

Consider `OCCOc1ccccc1` [2-phenoxyethanol], for which the viability of bacteria entry in test [1] (setting [3]) and in test [1] (setting [4]) was “reduce the viability of bacteria” throughout.

For `O=C(NCO)N(CO)C1(CO)C(=O)NC(=O)N1CO` (centres unmarked) [diazolidinyl urea], the “viability of bacteria over time” value in test [2] is “reduced the viability of bacteria”.

Regarding `C/C=C/C=C/C(=O)O` [sorbic acid], the viability of bacteria entry in test [1] (setting [3]) and in test [1] (setting [4]) was “reduce the viability of bacteria” in each case.

With `C[CH2][Hg][S]c1ccccc1C(=O)[O-].[Na+]` [thimerosal], the viability of bacteria entry in test [1] (setting [3]) and in test [1] (setting [4]) was “reduce the viability of bacteria” in each case. In test [2], the “viability of bacteria over time” value is “reduced the viability of bacteria”.
